{
  "source": "patent US10213436B2",
  "about": "“Methods of treating cancer using aurora kinase inhibitors” (Millennium Pharmaceuticals, Inc., priority 2012, dated 2019)",
  "key": {"cells": {"tested_on": "cells", "conditions": "cells treated with MLN8054; cited from earlier work"}, "[1]": {"conditions": "mouse, in vivo"}, "NCI-H69": {"tested_on": "NCI-H69", "assay": "NCI-H69 small cell lung cancer xenograft model", "method": "Procedure. […] Treatments began when tumors reached approximately 200 mm^3 following subcutaneous tumor implantation with NCI-H69 tumor fragments for all groups containing 10 female immunocompromised nu/nu mice per group. MLN8237 was tested at a dose of 20 mg/kg administered PO on a QIDx21-Q8Hx2 schedule and at doses of 20 and 10 mg/kg on a QIDx21 schedule. Paclitaxel was tested at doses of 30 and 15 mg/kg administered IV on a Q7Dx3 schedule. Each paclitaxel dose was combined with each MLN8237 dose on the QDx21 treatment schedule. In the combination treatment groups MLN8237 was administered first to the animals, followed immediately by the administration of paclitaxel. One group served as a vehicle-treated control group receiving PO treatment with the MLN8237 vehicle on a QIDx21 schedule."}, "NCI-H82": {"tested_on": "NCI-H82", "assay": "NCI-H82 small cell lung cancer xenograft model"}, "[2]": {"assay": "Single agent maximum tolerated dose in mice"}},
  "note": "Read-outs that look alike come from different tables or passages of the source.",
  "data": [
    {"smiles": "O=C(O)c1ccc(Nc2ncc3c(n2)-c2ccc(Cl)cc2C(c2c(F)cccc2F)=NC3)cc1", "note": "[MLN8054]", "values": [
      {"measurement": "cell fate after repeated defective mitotic divisions", "setting": "cells", "result": "undergo senescence"},
      {"measurement": "chromosome content of treated cells", "setting": "cells", "result": "develop aneuploidy that increases over time"}
    ]},
    {"smiles": "COc1cc(Nc2ncc3c(n2)-c2ccc(Cl)cc2C(c2c(F)cccc2OC)=NC3)ccc1C(=O)[O-].O.[Na+]", "note": "[alisertib, sodium 4-{[9-chloro-7-(2-fluoro-6-methoxyphenyl)-5H-pyrimido[5,4-d][2]benzazepin-2-yl]amino}-2-methoxybenzoate monohydrate]", "values": [
      {"measurement": "single agent maximum tolerated dose in mice", "setting": "[1]", "result": 20, "unit": "mg/kg BID"},
      {"measurement": "antitumor activity", "setting": "NCI-H69; single agent alisertib 20 mg/kg BID (maximum tolerated dose)", "result": "prolonged regressions"},
      {"measurement": "antitumor activity", "setting": "NCI-H82; single agent alisertib 10 mg/kg QD", "result": "no antitumor activity"}
    ]},
    {"smiles": "CC(=O)O[C@H]1C(=O)[C@@]2(C)[C@H]([C@H](OC(=O)c3ccccc3)[C@]3(O)C[C@H](OC(=O)[C@H](O)[C@@H](NC(=O)c4ccccc4)c4ccccc4)C(C)=C1C3(C)C)[C@]1(OC(C)=O)CO[C@@H]1C[C@@H]2O", "note": "[paclitaxel]", "values": [
      {"measurement": "single agent maximum tolerated dose in mice", "setting": "[2]", "result": 30, "unit": "mg/kg QD"},
      {"measurement": "antitumor activity", "setting": "NCI-H69; single agent paclitaxel 30 mg/kg (maximum tolerated dose)", "result": "sustained cures"},
      {"measurement": "antitumor activity", "setting": "NCI-H82; single agent paclitaxel 15 mg/kg QW", "result": "no antitumor activity"}
    ]},
    {"smiles": "CC[C@@]1(O)C(=O)OCc2c1cc1n(c2=O)Cc2cc3c(CN(C)C)c(O)ccc3nc2-1", "note": "[topotecan]", "values": [
      {"measurement": "single agent maximum tolerated dose", "setting": "[2]; IV", "result": 1.5, "unit": "mg/kg Q5D"}
    ]}
  ]
}
